Assay results as given in article PMC11012124, “Synthesis of Novel Triazine-Based Chalcones and 8,9-dihydro-7H-pyrimido[4,5-b][1,4]diazepines as Potential Leads in the Search of Anticancer, Antibacterial and Antifungal Agents” (International Journal of Molecular Sciences, 2024).

What was measured:
[1] = system: HT29; assay: cells; conditions: Homo sapiens, HT-29, 48 h
[2] = system: SNB-75; assay: cells; conditions: Homo sapiens, SNB-75, 48 h
[3] = system: TK-10; assay: cells; conditions: Homo sapiens, TK-10, 48 h
[4] = system: HCT-15; assay: cells; conditions: Homo sapiens, HCT-15, 48 h
[5] = system: 786-0; assay: cells; conditions: Homo sapiens, 786-0, 48 h
[6] = system: MDA-MB-468; assay: cells; conditions: Homo sapiens, MDA-MB-468, 48 h
[7] = system: CAKI-1; assay: cells; conditions: Homo sapiens, CAKI-1, 48 h
[8] = system: OVCAR-8; assay: cells; conditions: Homo sapiens, OVCAR-8, 48 h
[9] = Hemolytic activity, spectrophotometric; format: cell-based, human; conditions: human, human red blood cells (huRBC), 5% hematocrit, 200 μg/mL, 37 °C
[10] = system: M14; assay: cells; conditions: Homo sapiens, M14, 48 h
[11] = system: SK-MEL-28; assay: cells; conditions: Homo sapiens, SK-MEL-28, 48 h
[12] = system: UACC-257; assay: cells; conditions: Homo sapiens, UACC-257, 48 h
[13] = system: SK-OV-3; assay: cells; conditions: Homo sapiens, SK-OV-3, 48 h
[14] = system: SN12C; assay: cells; conditions: Homo sapiens, 48 h
[15] = system: UACC-62; assay: cells; conditions: Homo sapiens, UACC-62, 48 h
[16] = system: HS 578T; assay: cells; conditions: Homo sapiens, 48 h
[17] = system: NCI-H460; assay: cells; conditions: Homo sapiens, NCI-H460, 48 h
[18] = system: EKVX; assay: cells; conditions: Homo sapiens, 48 h
[19] = system: OVCAR-4; assay: cells; conditions: Homo sapiens, OVCAR-4, 48 h
[20] = system: SF-295; assay: cells; conditions: Homo sapiens, SF-295, 48 h
[21] = system: KM12; assay: cells; conditions: Homo sapiens, KM12, 48 h
[22] = system: RXF 393; assay: cells; conditions: Homo sapiens, RXF 393, 48 h
[23] = system: MALME-3M; assay: cells; conditions: Homo sapiens, 48 h
[24] = system: CCRF-CEM; assay: cells; conditions: Homo sapiens, 48 h
[25] = system: MCF7; assay: cells; conditions: Homo sapiens, MCF7, 48 h
[26] = system: NCI-H322M; assay: cells; conditions: Homo sapiens, 48 h
[27] = system: SK-MEL-5; assay: cells; conditions: Homo sapiens, SK-MEL-5, 48 h
[28] = system: K-562; assay: cells; conditions: Homo sapiens, K562, 48 h
[29] = system: OVCAR-5; assay: cells; conditions: Homo sapiens, OVCAR-5, 48 h
[30] = system: SF-268; assay: cells; conditions: Homo sapiens, SF-268, 48 h
[31] = system: COLO 205; assay: cells; conditions: Homo sapiens, COLO 205, 48 h
[32] = system: HL-60(TB); assay: cells; conditions: Homo sapiens, HL-60, 48 h
[33] = system: SF-539; assay: cells; conditions: Homo sapiens, SF-539, 48 h
[34] = system: UO-31; assay: cells; conditions: Homo sapiens, UO-31, 48 h
[35] = system: HOP-62; assay: cells; conditions: Homo sapiens, HOP-62, 48 h
[36] = system: HCC-2998; assay: cells; conditions: Homo sapiens, HCC 2998, 48 h
[37] = system: A498; assay: cells; conditions: Homo sapiens, A498, 48 h

In the case of `Nc1nc(N)c2c(n1)NC(c1ccc(Cl)cc1)CC(c1ccc(Nc3nc(NCCO)nc(Nc4ccc(Cl)cc4)n3)cc1)=N2` (centres unmarked) [33e], the GI50 [1] is reported as 1.7 µM, the CC50 ([1]; read-out: LC50) is reported as 7.96 µM and the GI50 [2] is reported as 1.59 µM. The CC50 ([2]; read-out: LC50) was 9.94 µM, the GI50 [3] was 10.6 µM and the CC50 ([3]; read-out: LC50) was 60.4 µM. The GI50 [4] was 1.29 µM, the CC50 ([4]; read-out: LC50) was 6.09 µM and the GI50 [5] was 1.55 µM. For the same compound, the CC50 ([5]; read-out: LC50) was 5.96 µM, the GI50 [6] was 1.39 µM and the CC50 ([6]; read-out: LC50) was 5.6 µM. For the same compound, the GI50 [7] was 5.36 µM, the CC50 ([7]; read-out: LC50) was over 100 µM and the GI50 [8] was 1.57 µM. It also gave a CC50 ([8]; read-out: LC50) of 6.81 µM, a hemolysis at 24 h, 200 µg/mL [9] of 1.2% and a GI50 [10] of 1.9 µM. For the same compound, the CC50 ([10]; read-out: LC50) was 10.5 µM, the GI50 [11] was 1.73 µM and the CC50 ([11]; read-out: LC50) was 5.61 µM. The GI50 [12] was 1.91 µM, the CC50 ([12]; read-out: LC50) was 7.32 µM and the GI50 [13] was 14.8 µM. For the same compound, the CC50 ([13]; read-out: LC50) was 58.3 µM, the GI50 [14] was 1.95 µM and the GI50 [15] was 2.03 µM. It also gave a CC50 ([15]; read-out: LC50) of 9.06 µM, a GI50 [16] of 2.22 µM and a CC50 ([16]; read-out: LC50) of over 100 µM. It also gave a GI50 [17] of 1.72 µM, a CC50 ([17]; read-out: LC50) of 6.42 µM and a GI50 [18] of 2.01 µM. For the same compound, the CC50 ([18]; read-out: LC50) was 28.7 µM, the GI50 [19] was 1.96 µM and the CC50 ([19]; read-out: LC50) was 32.7 µM. It also gave a GI50 [20] of 1.73 µM, a CC50 ([20]; read-out: LC50) of 7.76 µM and a GI50 [21] of 3.18 µM. For the same compound, the CC50 ([21]; read-out: LC50) was over 100 µM, the GI50 [22] was 1.54 µM and the CC50 ([22]; read-out: LC50) was 5.73 µM. For the same compound, the GI50 [23] was 1.75 µM, the GI50 [24] was 1.14 µM and the CC50 ([24]; read-out: LC50) was over 100 µM. For the same compound, the GI50 [25] was 1.2 µM, the CC50 ([25]; read-out: LC50) was 5.47 µM and the GI50 [26] was 2.02 µM. It also gave a CC50 ([26]; read-out: LC50) of 16.9 µM, a GI50 [27] of 1.48 µM and a CC50 ([27]; read-out: LC50) of 5.3 µM. For the same compound, the GI50 ([28]; K-562, 48 h) was 0.71 µM, the CC50 ([28]; read-out: LC50) was over 100 µM and the GI50 [29] was 4.48 µM. It also gave a CC50 ([29]; read-out: LC50) of 74 µM, a GI50 [30] of 4.14 µM and a CC50 ([30]; read-out: LC50) of over 100 µM. The GI50 [31] was 1.51 µM, the CC50 ([31]; read-out: LC50) was 8.55 µM and the GI50 [32] was 1.15 µM. The CC50 ([32]; read-out: LC50) was over 100 µM, the GI50 [33] was 1.68 µM and the CC50 ([33]; read-out: LC50, SF-539, 48 h) was 6.56 µM. It also gave a GI50 [34] of 3.1 µM, a CC50 ([34]; read-out: LC50) of over 100 µM and a GI50 [35] of 2.83 µM. It also gave a CC50 ([35]; read-out: LC50) of 34.5 µM, a GI50 [36] of 1.44 µM and a CC50 ([36]; read-out: LC50) of 5.36 µM. The GI50 [37] was 5.9 µM and the CC50 ([37]; read-out: LC50) was 44.5 µM.
